Results from US20260184710A1, “CASITAS B-LINEAGE LYMPHOMA PROTOONCOGENE B (CBL-B) DEGRADING COMPOUNDS AND ASSOCIATED METHODS OF USE” (Arvinas Operations, Inc., priority 2022, published 2026).

Key:
Cbl-b [1] = biological target: T1, Cbl-b (Homo sapiens, UniProt Q13191); test: Cbl-b Degradation Method A (FACS, anti-Cbl-b antibody staining); format: cell-based; settings: Cbl-b-HiBit KI Jurkat Cells, incubated at least 20 hours; for DC50: half maximal degradation, read-out: Cbl-b Degredation Method A IC50; for Dmax: Jurkat, read-out: Cbl-b Degredation Method A Dmax (%)
T1 construct: Cbl-b-HiBit KI Jurkat Cells were purchased from Promega; host or cells: Cbl-b-HiBiT knock-in Jurkat cells
Outline: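 Cbl-b-HiBit KI Jurkat cells treated with compound for at least 20 h at 37 °C, then fixed, permeabilized and stained with anti-Cbl-b antibody plus anti-rabbit AF488 secondary. Cbl-b levels read by FACS; DC50 and Dmax (percent of control) derived.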

Cbl-b [2] = biological target: T1, Cbl-b; test: Cbl-b Degradation Method B (Nano-Glo HiBiT lytic detection); format: cell-based; settings: Cbl-b-HiBit KI Jurkat Cells, incubated at least 6-24 hours; for DC50: half maximal degradation, read-out: Cbl-b Degredation Method B IC50; for Dmax / Cbl-b Degredation Method B Dmax (%): maximum degradation observed; for Dmax: read-out: Cbl-b Degredation Method B Dmax (%)
Outline: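 Cbl-b-HiBiT knock-in Jurkat cells (20,000/well) were treated after ~24 h plating with an 11-point 1:3 series for 6-24 h at 37° C. Remaining Cbl-b measured by Nano-Glo HiBiT lytic luminescence. DC50 and Dmax expressed as % of control.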

T1 sequence (Q13191 whole entry): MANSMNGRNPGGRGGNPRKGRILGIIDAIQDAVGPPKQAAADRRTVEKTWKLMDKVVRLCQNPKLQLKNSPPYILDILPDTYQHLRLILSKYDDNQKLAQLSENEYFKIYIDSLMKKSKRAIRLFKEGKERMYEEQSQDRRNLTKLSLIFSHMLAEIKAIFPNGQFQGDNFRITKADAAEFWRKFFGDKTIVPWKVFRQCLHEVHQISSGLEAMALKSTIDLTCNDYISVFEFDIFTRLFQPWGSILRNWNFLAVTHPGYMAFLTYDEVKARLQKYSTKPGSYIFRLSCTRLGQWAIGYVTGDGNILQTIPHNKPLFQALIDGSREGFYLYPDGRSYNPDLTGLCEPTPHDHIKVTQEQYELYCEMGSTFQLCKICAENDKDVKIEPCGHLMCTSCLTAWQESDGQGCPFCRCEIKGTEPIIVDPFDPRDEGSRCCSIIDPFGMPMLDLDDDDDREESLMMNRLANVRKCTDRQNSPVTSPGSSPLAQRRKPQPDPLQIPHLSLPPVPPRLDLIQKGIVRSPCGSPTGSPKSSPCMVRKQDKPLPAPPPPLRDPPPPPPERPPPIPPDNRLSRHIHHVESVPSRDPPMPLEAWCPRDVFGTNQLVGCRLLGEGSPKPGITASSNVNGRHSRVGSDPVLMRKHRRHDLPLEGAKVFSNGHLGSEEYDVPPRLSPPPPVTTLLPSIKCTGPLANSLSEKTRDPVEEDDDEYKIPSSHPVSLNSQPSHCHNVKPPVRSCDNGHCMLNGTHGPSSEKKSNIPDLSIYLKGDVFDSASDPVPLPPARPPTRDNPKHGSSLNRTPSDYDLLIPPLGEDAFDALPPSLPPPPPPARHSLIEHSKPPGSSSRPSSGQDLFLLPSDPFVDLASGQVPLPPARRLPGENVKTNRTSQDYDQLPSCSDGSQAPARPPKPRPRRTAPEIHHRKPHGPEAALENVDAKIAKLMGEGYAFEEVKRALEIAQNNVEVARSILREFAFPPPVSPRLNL

| DC50 (Cbl-b [1]) [nM] | Dmax (Cbl-b [1]; maximum degradation observed) [%] | DC50 (Cbl-b [2]) [nM] | Dmax (Cbl-b [2]) [%] | Cbl-b Degredation Method A Dmax (%) (Cbl-b [1]; maximum degradation observed) | Cbl-b Degredation Method B Dmax (%) (Cbl-b [2]) | Structure (SMILES) |
| --- | --- | --- | --- | --- | --- | --- |
| < 5 | > 70 | < 5 | 35 to 70 | – | – | COc1c(N2CCC(O[C@H]3CC[C@H](CN4CCN(Cc5cc6c(c(C(F)(F)F)c5)CN(c5cccc(C7(Cc8nncn8C)COC7)c5)C6=O)CC4)CC3)CC2)ccc2c1CN(C1CCC(=O)NC1=O)C2=O (stereo partly drawn) [Example 193, 3-[4-methoxy-1-oxo-5-(4-{[(1r,4r)-4-[(4-{[2-(3-{3-[(4-methyl-4H-1,2,4-triazol-3-yl)methyl]oxetan-3-yl}phenyl)-3-oxo-7-(trifluoromethyl)-2,3-dihydro-1H-isoindol-5-yl]methyl}piperazin-1-yl)methyl]cyclohexyl]oxy}piperidin-1-yl)-2,3-dihydro-1H-isoindol-2-yl]piperidine-2,6-dione] |
| 50 to 500 | – | < 5 | – | B (35 < B < 70) | C (C ≤ 35) | C[C@@H]1c2nc(N3CCC(O[C@H]4CC[C@H](CN5CCN(Cc6cc7c(c(C(F)(F)F)c6)CN(c6cccc(C8(Cc9nncn9C)CC(C#N)C8)c6)C7=O)C(C)(C)C5)CC4)CC3)ccc2C(=O)N1C1CCC(=O)NC1=O (single isomer, unassigned) [Example 307, (1r***,3r***)-3-(3-{6-[(2,2-dimethyl-4-{[(1r**,4r**)-4-({1-[(7R*)-6-(2,6-dioxopiperidin-3-yl)-7-methyl-5-oxo-5H,6H,7H-pyrrolo[3,4-b]pyridin-2-yl]piperidin-4-yl}oxy)cyclohexyl]methyl}piperazin-1-yl)methyl]-1-oxo-4-(trifluoromethyl)-2,3-dihydro-1H-isoindol-2-yl}phenyl)-3-[(4-methyl-4H-1,2,4-triazol-3-yl)methyl]cyclobutane-1-carbonitrile] |
| 5 to 50 | 35 to 70 | < 5 | 35 to 70 | – | – | CC1c2nc(N3CCC(O[C@H]4CC[C@H](CN5CCC6(CCN(c7cc8c(c(C(F)(F)F)c7)CN(c7cccc([C@]9(Cc%10nncn%10C)C[C@@H](C#N)C9)c7)C8=O)C6)C5)CC4)CC3)ccc2C(=O)N1C1CCC(=O)NC1=O (stereo partly drawn) [Example 179, (1r,3r)-3-[(4-methyl-4H-1,2,4-triazol-3-yl)methyl]-3-{3-[1-oxo-6-(7-{[(1r,4r)-4-({1-[6-(2,6-dioxopiperidin-3-yl)-7-methyl-5-oxo-5H,6H,7H-pyrrolo[3,4-b]pyridin-2-yl]piperidin-4-yl}oxy)cyclohexyl]methyl}-2,7-diazaspiro[4.4]nonan-2-yl)-4-(trifluoromethyl)-2,3-dihydro-1H-isoindol-2-yl]phenyl}cyclobutane-1-carbonitrile] |
| > 500 | – | > 500 | – | – | – | Cn1cnnc1CC1(c2cccc(N3Cc4c(cc(CN5CCC(CN6CCN(c7ccc8c(c7)C(=O)N(C7CCC(=O)NC7=O)C8=O)CC6)CC5)cc4C(F)(F)F)C3=O)c2)COC1 (stereo not drawn) [Example 28, 2-(2,6-dioxopiperidin-3-yl)-5-{4-[(1-{[2-(3-{3-[(4-methyl-4H-1,2,4-triazol-3-yl)methyl]oxetan-3-yl}phenyl)-3-oxo-7-(trifluoromethyl)-2,3-dihydro-1H-isoindol-5-yl]methyl}piperidin-4-yl)methyl]piperazin-1-yl}-2,3-dihydro-1H-isoindole-1,3-dione] |
| > 500 | – | > 500 | – | – | – | Cn1cnnc1CC1(c2cccc(N3Cc4c(cc(CN5CCC(CC6CCN(c7ccc8c(c7)C(=O)N(C7CCC(=O)NC7=O)C8=O)CC6)C5)cc4C(F)(F)F)C3=O)c2)COC1 (stereo not drawn) [Example 75, 2-(2,6-dioxopiperidin-3-yl)-5-{4-[(1-{[2-(3-{3-[(4-methyl-4H-1,2,4-triazol-3-yl)methyl]oxetan-3-yl}phenyl)-3-oxo-7-(trifluoromethyl)-2,3-dihydro-1H-isoindol-5-yl]methyl}pyrrolidin-3-yl)methyl]piperidin-1-yl}-2,3-dihydro-1H-isoindole-1,3-dione] |
| > 500 | – | > 500 | – | – | – | Cn1cnnc1CC1(c2cccc(N3Cc4c(cc(CN5CCC(CN6CCC(Oc7ccc8c(c7)C(=O)N(C7CCC(=O)NC7=O)C8=O)CC6)CC5)cc4C(F)(F)F)C3=O)c2)COC1 (stereo not drawn) [Example 30, 2-(2,6-dioxopiperidin-3-yl)-5-({1-[(1-{[2-(3-{3-[(4-methyl-4H-1,2,4-triazol-3-yl)methyl]oxetan-3-yl}phenyl)-3-oxo-7-(trifluoromethyl)-2,3-dihydro-1H-isoindol-5-yl]methyl}piperidin-4-yl)methyl]piperidin-4-yl}oxy)-2,3-dihydro-1H-isoindole-1,3-dione] |
| > 500 | – | > 500 | – | – | – | Cn1cnnc1CC1(c2cccc(N3Cc4c(cc(CN5CCC(CC6CN(c7cccc8c7C(=O)N(C7CCC(=O)NC7=O)C8=O)C6)CC5)cc4C(F)(F)F)C3=O)c2)COC1 (stereo not drawn) [Example 99, 2-(2,6-dioxopiperidin-3-yl)-4-{3-[(1-{[2-(3-{3-[(4-methyl-4H-1,2,4-triazol-3-yl)methyl]oxetan-3-yl}phenyl)-3-oxo-7-(trifluoromethyl)-2,3-dihydro-1H-isoindol-5-yl]methyl}piperidin-4-yl)methyl]azetidin-1-yl}-2,3-dihydro-1H-isoindole-1,3-dione] |
| < 5 | > 70 | < 5 | 35 to 70 | – | – | CC1CN(C[C@H]2CC[C@H](OC3CCN(c4ccc5c(c4F)CN(C4CCC(=O)NC4=O)C5=O)CC3)CC2)CCN1Cc1cc2c(c(C(F)(F)F)c1)CN(c1cccc([C@]3(Cc4nncn4C)C[C@@H](C#N)C3)c1)C2=O (stereo partly drawn) [Example 204, (1r,3r)-3-(3-{6-[(2-methyl-4-{[(1r,4r)-4-({1-[2-(2,6-dioxopiperidin-3-yl)-4-fluoro-1-oxo-2,3-dihydro-1H-isoindol-5-yl]piperidin-4-yl}oxy)cyclohexyl]methyl}piperazin-1-yl)methyl]-1-oxo-4-(trifluoromethyl)-2,3-dihydro-1H-isoindol-2-yl}phenyl)-3-[(4-methyl-4H-1,2,4-triazol-3-yl)methyl]cyclobutane-1-carbonitrile] |
| < 5 | > 70 | < 5 | > 70 | – | – | Cn1cnnc1CC1(c2cccc(N3Cc4c(cc(CN5CC[C@H](CN6CCN(C[C@H]7CC[C@H](OC8CCN(c9ccc%10c(c9F)CN(C9CCC(=O)NC9=O)C%10=O)CC8)CC7)CC6)C5)cc4C(F)(F)F)C3=O)c2)COC1 (stereo partly drawn) [Example 10, 3-[4-fluoro-1-oxo-5-(4-{[(1r, 4r)-4-[(4-{[(3S)-1-{[2-(3-{3-[(4-methyl-4H-1,2,4-triazol-3-yl)methyl]oxetan-3-yl}phenyl)-3-oxo-7-(trifluoromethyl)-2,3-dihydro-1H-isoindol-5-yl]methyl}pyrrolidin-3-yl]methyl}piperazin-1-yl)methyl]cyclohexyl]oxy}piperidin-1-yl)-2,3-dihydro-1H-isoindol-2-yl]piperidine-2,6-dione] |
| 50 to 500 | 35 to 70 | 5 to 50 | – | – | C (C ≤ 35) | CC(C)n1c(=O)n(C2CCC(=O)NC2=O)c2cccc(N3CCC(CN4CCC5(CC4)CN(Cc4ccc(-c6cc7c(c(C(F)(F)F)c6)CN(c6cccc(C8(Cc9nncn9C)CC(C#N)C8)c6)C7=O)cc4)C5)CC3)c21 (stereo not drawn) [Example 283, 3-[3-[6-[4-[[7-[[1-[1-(2,6-dioxo-3-piperidyl)-3-isopropyl-2-oxo-benzimidazol-4-yl]-4-piperidyl]methyl]-2,7-diazaspiro[3.5]nonan-2-yl]methyl]phenyl]-1-oxo-4-(trifluoromethyl)isoindolin-2-yl]phenyl]-3-[(4-methyl-1,2,4-triazol-3-yl)methyl]cyclobutanecarbonitrile] |
| – | 35 to 70 | < 5 | 35 to 70 | – | – | Cc1cc(N2CCC(O[C@H]3CC[C@H](CN4CCC5(CCN(c6cc7c(c(C(F)(F)F)c6)CN(c6cccc([C@]8(Cc9nncn9C)C[C@@H](C#N)C8)c6)C7=O)C5)C4)CC3)CC2)c(F)c2c1C(=O)N(C1CCC(=O)NC1=O)C2 (stereo partly drawn) [Example 188, (1r,3r)-3-[(4-methyl-4H-1,2,4-triazol-3-yl)methyl]-3-{3-[1-oxo-6-(7-{[(1r,4r)-4-({1-[2-(2,6-dioxopiperidin-3-yl)-4-fluoro-7-methyl-1-oxo-2,3-dihydro-1H-isoindol-5-yl]piperidin-4-yl}oxy)cyclohexyl]methyl}-2,7-diazaspiro[4.4]nonan-2-yl)-4-(trifluoromethyl)-2,3-dihydro-1H-isoindol-2-yl]phenyl}cyclobutane-1-carbonitrile] |
| < 5 | 35 to 70 | < 5 | 35 to 70 | – | – | CC1c2nc(N3CCC(O[C@H]4CC[C@H](CN5CCN(Cc6cc7c(c(C(F)(F)F)c6)CN(c6cccc([C@]8(Cc9nncn9C)C[C@@H](C#N)C8)c6)C7=O)CC5)CC4)CC3)ccc2C(=O)N1C1CCC(=O)NC1=O (stereo partly drawn) [Example 203, (1r,3r)-3-[(4-methyl-4H-1,2,4-triazol-3-yl)methyl]-3-(3-{1-oxo-6-[(4-{[(1r,4r)-4-({1-[6-(2,6-dioxopiperidin-3-yl)-7-methyl-5-oxo-5H,6H,7H-pyrrolo[3,4-b]pyridin-2-yl]piperidin-4-yl}oxy)cyclohexyl]methyl}piperazin-1-yl)methyl]-4-(trifluoromethyl)-2,3-dihydro-1H-isoindol-2-yl}phenyl)cyclobutane-1-carbonitrile] |
